Here are results for 7 molecules from patent US6855511B2, “Fructosamine oxidase assay: methods and materials” (Protemix Corporation Limited, priority 1998, dated 2005).

Type in all cases: biochemical
The subject of data set [1] is Human fructosamine oxidase. In words: Interference of additives/anticoagulants in the fructosamine oxidase assay. The following applies: additive in the reagent (Heparin 1000 U/L, EDTA 100 μM); control 100. How it is done:
(§1) The reagent is 50 mM TES buffer pH 7.4 containing 10 μM cytochrome c (Sigma), and […] 50 μM fructosamine as glycated bovine serum albumin.
(§2) One unit of enzyme was defined as the amount which reduced 1 μmol/minute of cytochrome c in solution under the above assay conditions. The calculation factor is determined from the molar absorptivity for ferrocytochrome c (E550nm) according to the formula: U/L(μmol.min^−1.L^−1)=TV×10^3/ε550nm×SV where • TV=total reaction volume • SV=sample volume (iv) Materials
Cytochrome c is a non-specific reductant and other reducing substances in sera or anticoagulants added to the blood sample at specimen collection may interfere in the assay as shown in Table 4.

For data set [2], the system named is fructosamine oxidase. The data set is described as follows: Fructosamine oxidase inhibitor assay (ferricytochrome c reduction) in human blood plasma. Details: velocity constant (K), fraction of the enzyme inhibited in a given period of time: dose or concentration left out as unconfirmed. The following applies: human plasma sample; for IC50: read-out: IC50, concentration of inhibitor causing 50% inactivation of the enzyme. As to the method:
as §1, §2
An important application of the current activity assay is as a means to identify potential fructosamine oxidase antagonists and inhibitors. Fructosamine oxidase inhibitors may be hydrazine compounds which bind and block the quinone co-factor, copper chelators which bind and block the copper co-factor, or substrate analogues which mimic the normal substrate of the enzyme. […]
The effectiveness of an enzyme inhibitor is usually expressed by a velocity constant (K) which determines the fraction of the enzyme inhibited in a given period of time by a certain concentration of inhibitor. The specificity of the inhibitor for the active center of the enzyme is indicated by the concentration of inhibitor causing 50% inactivation of the enzyme (IC50). […].

For data set [3], the system named is fructosamine oxidase. The data set is described as follows: Specificity of the fructosamine oxidase assay for reactive oxygen species, free radical scavengers added to the reagent. The following applies: free radical scavenger added to the reagent (superoxide dismutase 20 kU/L, catalase 1000 kU/L, mannitol 50 mmol/L); control 15.34 ± 0.16. How it is done:
as §1, §2
The specificity of the assay for reactive oxygen species was tested by measuring degree of inhibition of ferricytochrome c reduction after adding the following oxygen free radical scavengers to the reaction mixture: (a) Superoxide dismutase to selectively remove superoxide; (b) catalase to selectively remove hydrogen peroxide; & (iii) mannitol to scavenge hydroxyl radicals.

For `O=C(O)CN(CCN(CC(=O)O)CC(=O)O)CC(=O)O` [EDTA, ethylenediamine tetraacetic acid], in data set [1], the “Activity compared with control” value amounted to 26.3%. With `C[C@H](CS)C(=O)N1CCC[C@H]1C(=O)O` [captopril], in the data set with fructosamine oxidase [2], the “velocity constant (K), fraction of the enzyme inhibited in a given period of time” value is 2.6 % per minute and the IC50 was found to be 830 nM. Turning to `C[C@@](Cc1ccc(O)c(O)c1)(NN)C(=O)O` [carbidopa], in the data set on fructosamine oxidase [2], the “velocity constant (K), fraction of the enzyme inhibited in a given period of time” value is recorded as 15 % per minute and the IC50 turned out to be 500 nM. `OC[C@@H](O)[C@@H](O)[C@H](O)[C@H](O)CO` [mannitol] yielded an Enzyme activity in the data set on fructosamine oxidase [3] of 14.96 ± 0.19 U/L. For the molecule Heparin, the “Activity compared with control” value in data set [1] was 24.4%. Regarding catalase, the Enzyme activity in the data set on fructosamine oxidase [3] is recorded as 12.23 ± 0.03 U/L. superoxide dismutase yielded an Enzyme activity in the data set on fructosamine oxidase [3] of 9.99 ± 0.03 U/L.
